Assay results taken from patent US20230271947A1, “SALT AND CRYSTAL FORM OF KETOHEXOKINASE INHIBITOR AND USE THEREOF” (SHANDONG XUANZHU PHARMA CO., LTD., priority 2020, published 2023).

Tests used:
[1] = biological target: T1, KHK-C (Homo sapiens, UniProt P50053); assay: In vitro KHK kinase inhibitory activity test (ADP-Glo); type: biochemical; settings: 1 nM KHK-C, 100 µM ATP, 200 µM D-Fructose
T1 construct: purchased Origene TP323488
T1 sequence (P50053 1-298): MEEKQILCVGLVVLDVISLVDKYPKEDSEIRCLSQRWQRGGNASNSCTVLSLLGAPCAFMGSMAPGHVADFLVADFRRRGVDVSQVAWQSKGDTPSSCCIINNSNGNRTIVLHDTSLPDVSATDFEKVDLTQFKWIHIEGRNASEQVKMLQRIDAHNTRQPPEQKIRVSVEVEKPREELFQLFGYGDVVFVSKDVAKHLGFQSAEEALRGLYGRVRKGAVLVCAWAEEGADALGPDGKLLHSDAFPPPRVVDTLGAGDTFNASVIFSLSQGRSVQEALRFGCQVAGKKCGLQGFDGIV

[2] = system: D-Fructose-induced fructose-1-phosphate in HepG2 cells; assay: In vitro cell inhibitory activity test: D-Fructose-induced fructose-1-phosphate in HepG2 cells (LC-MS); type: cell-based; settings: D-Fructose 3 h, read-out: EC50 (nM), inhibition of D-Fructose-induced fructose-1-phosphate
Procedure: 1) HepG2 cells in logarithmic growth phase were collected and counted by using a […]. Cell viability was detected by trypan blue exclusion method to ensure that the cell viability was above 90%.
2) A concentration of the HepG2 cells was adjusted, and 81 µL of FBS-free basal medium (starvation treated) cell suspension was added to each 96-well plate with a testing well cell inoculation quantity of 5 × 10^4.
3) The HepG2 cells in the 96-well plates were cultured overnight at 37° C., 5% CO2, and 95% humidity.
1) Before dosing, 9 µL of FBS was added into testing wells of the 96-well plate, and the starvation treatment was stopped.
2) A 10-fold compound solution was prepared, with the highest concentration of 100 µM, 8 concentrations and 3-fold gradient dilution. 10 µL of drug solution was added to each well of the 96-well plate inoculated with the cells, and three repeated wells were set for each drug concentration. 10 µL of 1% DMSO solution was added to the solvent control group, and three repeated wells were set.
3) The cells in the 96-well plates added with the drug were incubated at 37° C., 5% CO2, and 95% humidity for 30 min.
4) A 11-fold D-Fructose solution was prepared, with a concentration of 220 mM. […]
Data were analyzed by GraphPad Prism 5.0 software, a dose-effect curve was obtained by using nonlinear S-curve regression, and the EC50 value was calculated.

[3] = Stability investigation of crystal forms A, B, C, D and the amorphous form of the compound of formula (1) (related substances by HPLC, moisture, XRD, DSC); type: physicochemical
Procedure: (§1) 2.1 Investigation conditions for the crystal form A of the compound of formula (1): • placed at 105° C. for 5 days, opened, and sampled for testing on day 5; • placed at 60° C. for 10 days, opened/closed, and sampled for testing on day 10; • placed at 25° C. and RH 92.5% for 10 days, opened/closed, and sampled for testing on day 10; • placed at 40° C. and RH 75% for one month, opened/closed, and sampled for testing on the last day of the month; and • under illumination, employing a closed way (polyethylene bag + composite film bag) to meet illumination requirements, and sampled for testing.
Illumination requirements: ICH Q1B Stability Testing: Photostability Testing of New Drug Substances and Products.
Determination of related substances: determined according to 0512 HPLC in General Principle (Volume IV) of Chinese Pharmacopoeia (2015 Version).
Moisture determination: determined according to 2 Coulometric Titration in the First Method (Karl Fischer titration) of 0832 Moisture Determination Method in General Principle (Volume IV) of Chinese Pharmacopoeia (2015 Version).
XRD determination: determined according to the Second Method-Powder X-ray Diffraction Method of 0451 X-ray Diffraction Method in General Principle (Volume IV) of Chinese Pharmacopoeia (2015 Version).
DSC determination: precisely weighing an appropriate amount of sample in a Standard disc, covering the Standard disc, placing the Standard disc in a sample disc position in a DSC furnace, placing a blank disc of the same type in a reference position, and carrying out the following temperature rise program:
1. Equilibrate at 25° C.; and
as §1, with “B” for “A”
as §1, with “C” for “A”
1. Equilibrate at 25° C.; and 2. Ramp 10° C. to 200° C.
as §1, with “D” for “A”
as §1, with “amorphous” for “crystal”, “form” for “form A”, “(1):” for “(1): • placed at 105° C. for 5 days, opened, and sampled for testing on day 5;”

[4] = 25° C., RH 92.5%, closed, 10 days
[5] = 25° C., RH 92.5%, opened, 10 days

Compound: C[C@H]1CCN1c1nc(N2C[C@@H]3[C@@H](CC(=O)O)[C@@H]3C2)c2c(n1)C(F)(F)CC2 [Compound of formula (1), 2-((1R,5S,6R)-3-(7,7-difluoro-2-((S)-2-methylazetidin-1-yl)-6,7-dihydro-5H-cyclopenta[d]pyrimidin-4-yl)-3-azabicyclo[3.1.0]hexan-6-yl)acetic acid]
- IC50 [1]: 0.82 nM

Compound: C[C@H]1CCN1c1nc(N2C[C@@H]3[C@@H](CC(=O)O)[C@@H]3C2)cc(C(F)(F)F)n1 [PF-06835919]
- EC50 [2]: 169 nM

Compound: C[C@H]1CCN1c1nc(N2C[C@@H]3[C@@H](CC(=O)O)[C@@H]3C2)c2c(n1)C(F)(F)CC2 [Crystal form D, 2-((1R,5S,6R)-3-(7,7-difluoro-2-((S)-2-methylazetidin-1-yl)-6,7-dihydro-5H-cyclopenta[d]pyrimidin-4-yl)-3-azabicyclo[3.1.0]hexan-6-yl)acetic acid]
- DSC ([3]; 0 day): 167.79 °C
- Moisture % ([3]; 0 day): 0.066%
- Total related % ([3]; 0 day): 0.37%
- Trait ([3]; 0 day): Off-white power
- DSC [3, 4]: 167.46 °C
- Moisture % [3, 4]: 0.092%
- Total related % [3, 4]: 0.38%
- Trait [3, 4]: Off-white power
- XRD [3, 4]: Same as day 0
- DSC [3, 5]: 167.51 °C
- Moisture % [3, 5]: 0.048%
- Total related % [3, 5]: 0.38%
- Trait [3, 5]: Off-white power
- XRD [3, 5]: Same as day 0
- DSC ([3]; 40° C., RH 75%, closed, 1 M): 167.77 °C
- Moisture % ([3]; 40° C., RH 75%, closed, 1 M): 0.065%
- Total related % ([3]; 40° C., RH 75%, closed, 1 M): 0.38%
- Trait ([3]; 40° C., RH 75%, closed, 1 M): Off-white power
- XRD ([3]; 40° C., RH 75%, closed, 1 M): Same as day 0
- DSC ([3]; 40° C., RH 75%, opened, 1 M): 167.75 °C
- Moisture % ([3]; 40° C., RH 75%, opened, 1 M): 0.12%
- Total related % ([3]; 40° C., RH 75%, opened, 1 M): 0.39%
- Trait ([3]; 40° C., RH 75%, opened, 1 M): Off-white power
- XRD ([3]; 40° C., RH 75%, opened, 1 M): Same as day 0
- DSC ([3]; 60° C., closed, 10 days): 167.43 °C
- Moisture % ([3]; 60° C., closed, 10 days): 0.089%
- Total related % ([3]; 60° C., closed, 10 days): 0.40%
- Trait ([3]; 60° C., closed, 10 days): Off-white power
- XRD ([3]; 60° C., closed, 10 days): Same as day 0
- DSC ([3]; 60° C., opened, 10 days): 167.41 °C
- Moisture % ([3]; 60° C., opened, 10 days): 0.079%
- Total related % ([3]; 60° C., opened, 10 days): 0.41%
- Trait ([3]; 60° C., opened, 10 days): Off-white power
- XRD ([3]; 60° C., opened, 10 days): Same as day 0
- DSC ([3]; 105° C., opened, 5 days): 167.19 °C
- Moisture % ([3]; 105° C., opened, 5 days): 0.045%
- Total related % ([3]; 105° C., opened, 5 days): 0.51%
- Trait ([3]; 105° C., opened, 5 days): Off-white power
- XRD ([3]; 105° C., opened, 5 days): Same as day 0
- DSC ([3]; Avoid light for 18 days): 167.49 °C
- Moisture % ([3]; Avoid light for 18 days): 0.048%
- Total related % ([3]; Avoid light for 18 days): 0.38%
- Trait ([3]; Avoid light for 18 days): Off-white power
- XRD ([3]; Avoid light for 18 days): Same as day 0
- Stability, testing conclusion ([3]; under the above conditions (all placement conditions of the study)): relatively stable
